In US6639515B2, “Surveillance system for adverse events during drug development studies” (Novo Nordisk A/S, priority 2001, dated 2003):

What was measured:
[1] = Phase III trials, CUSUM surveillance of prolapses and urinary incontinence; assay type: in vivo, women
Excerpt: Phase III consisted of studies including 3000 women. The inclusion criteria were extended so that the women were older than those participating in phase II. Subjects were randomized to take either a placebo or NNC 46-0020 in one of two doses. […] As explained in detail below, this product has motivated the choice of parameters in the examples.
Early in phase III, a number of reports of prolapses and urinary incontinence were received. It was suspected that there were too many cases of prolapses and incontinence. Therefore, it was decided to set up a surveillance program, including expedited reporting of the events even though they are not classified as serious adverse events. Furthermore, investigators were instructed specifically to check for these types of events.
First, it was decided to set up separate programs for prolapses and incontinence, but later the etiology was suspected to be the same and therefore a combined program was used. The incidence of these events is poorly documented in the literature. There are a few reports on the prevalence and based on these, an incidence of 1%/year for each type of adverse event was chosen. This gives an estimated 60 events during the first year of the trial, distributed with 40 in the treatment group, and 20 in the placebo group. An alternative considered was to have a relative risk of 2, corresponding to an expected number of […]. The lower limit c was chosen as 0.
Due to the focus on these events, a number of adverse events were reported each day, and safety committee meetings were held each week. […] At this time, the process had passed not only the limit corresponding to the incidence of 1% of each type of adverse event, but also the limit corresponding to an incidence of 10%. Such “overrunning” seems to be unavoidable for multi-center studies. The distribution 44 to 1 corresponds to a relative risk of 22 for NNC 46-0020. […]

[2] = Phase II trials, adverse events; assay type: in vivo, women
Excerpt: The present invention was used to test a particular drug compound, NNC 46-0020, which was designed to protect healthy women from getting osteoporosis.

relative risk of prolapses and incontinence ([1]; phase III, drug (two doses pooled, 2/3 of patients) versus placebo (1/3), at the committee meeting where the alarm limit was passed): 22
SMILES: COc1ccc2c(c1)OC(C)(C)[C@@H](c1ccccc1)[C@@H]2c1ccc(OCCN2CCCC2)cc1 [NNC 46-0020]
final analysis of risk of prolapses and incontinence ([1]; after termination of the phase III trials, relative risk estimate reduced): increased risk of prolapses and incontinence
distribution of adverse events (prolapses and incontinence), treatment group to placebo group ([1]; phase III, unblinded cases at the committee meeting where the alarm limit was passed): 44 to 1
adverse events in phase II trials [2]: without major problems regarding adverse events
